Experimental findings from ChEMBL document CHEMBL1139663, “6H-Benzo[c]chromen-6-one derivatives as selective ERbeta agonists” (Bioorg Med Chem Lett, 2006) are described below.

In one test the target is T1, Estrogen receptor (Homo sapiens, UniProt P03372).
T1 sequence (P03372 whole entry): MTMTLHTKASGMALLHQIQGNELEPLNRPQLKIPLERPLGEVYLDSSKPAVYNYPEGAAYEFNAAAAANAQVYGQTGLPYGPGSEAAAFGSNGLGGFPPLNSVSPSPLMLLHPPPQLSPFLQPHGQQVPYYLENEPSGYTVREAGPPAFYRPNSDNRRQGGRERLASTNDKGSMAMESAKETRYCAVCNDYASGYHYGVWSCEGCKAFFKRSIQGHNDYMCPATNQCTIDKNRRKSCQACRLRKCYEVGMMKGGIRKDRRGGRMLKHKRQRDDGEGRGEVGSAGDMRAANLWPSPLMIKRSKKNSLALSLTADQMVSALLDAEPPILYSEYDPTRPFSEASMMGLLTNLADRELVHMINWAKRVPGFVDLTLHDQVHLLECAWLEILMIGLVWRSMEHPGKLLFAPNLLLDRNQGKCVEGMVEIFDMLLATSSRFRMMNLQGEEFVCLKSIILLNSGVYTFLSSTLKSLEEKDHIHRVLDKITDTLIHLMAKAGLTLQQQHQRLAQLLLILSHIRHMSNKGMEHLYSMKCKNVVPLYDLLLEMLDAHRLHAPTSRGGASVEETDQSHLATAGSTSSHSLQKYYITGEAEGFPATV

Test [1] concerns the target T2, Estrogen receptor beta (Homo sapiens, UniProt Q92731).
Description: Binding affinity to ERbeta
The target in test [2] is T2, Estrogen receptor beta. This is another data set of the same source.
Description: Binding affinity to ERbeta in presence of serum
Test [3] concerns the target T2, Estrogen receptor beta. This is another data set of the same source.
Description: Binding affinity to ERbeta in HTRF coactivator recruitment assay

T2 sequence (Q92731 whole entry): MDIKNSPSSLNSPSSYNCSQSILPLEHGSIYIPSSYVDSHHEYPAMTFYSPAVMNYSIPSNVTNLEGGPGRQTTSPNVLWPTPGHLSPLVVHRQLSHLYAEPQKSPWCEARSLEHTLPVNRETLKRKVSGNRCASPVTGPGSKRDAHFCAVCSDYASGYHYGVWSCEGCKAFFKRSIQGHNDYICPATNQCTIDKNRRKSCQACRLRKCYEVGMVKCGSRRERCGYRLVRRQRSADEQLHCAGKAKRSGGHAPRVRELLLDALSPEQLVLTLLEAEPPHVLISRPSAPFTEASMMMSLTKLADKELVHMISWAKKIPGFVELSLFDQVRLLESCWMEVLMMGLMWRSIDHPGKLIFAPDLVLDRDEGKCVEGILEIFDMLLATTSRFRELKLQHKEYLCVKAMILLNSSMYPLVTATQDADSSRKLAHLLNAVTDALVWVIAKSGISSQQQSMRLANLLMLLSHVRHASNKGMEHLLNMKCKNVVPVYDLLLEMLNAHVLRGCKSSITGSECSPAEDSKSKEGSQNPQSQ

Turning to `C/C=C/c1cccc2c(=O)oc3c(C)c(O)ccc3c12`, the IC50 (usually the midpoint of a concentration-inhibition curve) stood at 3.03 µM against Estrogen receptor and 0.116 µM against Estrogen receptor beta [1].
For `Cc1cc(O)cc2c1-c1ccc(O)c(C)c1OC2CC(C)C` (stereo not drawn), in that order: 0.627 µM and 0.049 µM.
For `C=CCC1(C)Oc2c(ccc(O)c2C)-c2c(C)cc(O)c(C)c21` (stereo not drawn), the IC50 stood at 0.157 µM on Estrogen receptor and 0.013 µM against Estrogen receptor beta [1].
On to `Cc1c(O)ccc2c1oc(=O)c1c(C)c(O)ccc12`, for which the IC50 is 0.159 µM against Estrogen receptor, 0.0041 µM at Estrogen receptor beta [1] and 0.078 µM on Estrogen receptor beta [2]. On Estrogen receptor beta [3], the response was half-maximal at 0.0072 µM (EC50).
Consider `Cc1c(O)ccc2c1OC(C)(C)c1c-2ccc(O)c1C`, for which the IC50 is 0.468 µM against Estrogen receptor and 0.045 µM against Estrogen receptor beta [1].
The matching figures for `Cc1cc(C)c2c(c1)c(=O)oc1cc(O)ccc12`: 0.585 µM and 0.09 µM.
The matching figures for `CCc1c(O)ccc2c1oc(=O)c1cc(Br)ccc12`: 5.46 µM and 2.34 µM.
The matching figures for `Cc1cc2c(=O)oc3c(C)c(O)ccc3c2c(C)c1Br`: > 10 µM and 0.057 µM.
Consider `CCCC1Oc2c(ccc(O)c2C)-c2c(C)cc(O)cc21` (stereo not drawn), for which the IC50 against Estrogen receptor is 0.626 µM; against Estrogen receptor beta [1], 0.022 µM.
For `C=Cc1cc(OC)cc2c(=O)oc3c(C)c(O)ccc3c12`, in that order: > 10 µM and 0.053 µM.
The matching figures for `Cc1cc(O)cc2c1-c1ccc(O)c(C)c1OC2C` (stereo not drawn): 1.21 µM and 0.024 µM.
For `Cc1c(O)ccc2c1oc(=O)c1c(C)ccc(C)c12`, in that order: 3.07 µM and 0.08 µM.
With `Cc1c(O)ccc2c1c(=O)oc1c(Br)c(O)ccc12`, the IC50 against Estrogen receptor turned out to be 1.92 µM; at Estrogen receptor beta [1], 0.067 µM.
For `Cc1c(O)cc(C)c2c1oc(=O)c1cc(O)ccc12`, in that order: 0.488 µM and 0.027 µM.
For `Cc1c(O)ccc2c1COc1c-2ccc(O)c1C`, in that order: 4.61 µM and 0.088 µM.
The matching figures for `Cc1c(O)ccc2c1oc(=O)c1c(C)c(NS(C)(=O)=O)ccc12`: 4.26 µM and 0.433 µM.
Turning to `CC/C=C/c1cc2c(cc1Br)c(=O)oc1c(C)c(O)ccc12`, the IC50 against Estrogen receptor came out at 1.09 µM; against Estrogen receptor beta [1], 0.026 µM.
For `Cc1c(O)ccc2c1OC(C)c1c-2ccc(O)c1C` (stereo not drawn), in that order: 0.335 µM and 0.008 µM.
For `Cc1c(O)ccc2c1oc(=O)c1c(C)c(NC=O)ccc12`, the IC50 is > 10 µM against Estrogen receptor and 0.957 µM on Estrogen receptor beta [1].
As to `Cc1c(O)ccc2c1c(=O)oc1cc(O)cc(C)c12`, the IC50 against Estrogen receptor was 1.86 µM; against Estrogen receptor beta [1], 0.067 µM.
Take `CCc1c(O)ccc2c1c(=O)oc1c(F)c(O)ccc12`: the IC50 is 0.228 µM at Estrogen receptor and 0.021 µM at Estrogen receptor beta [1].
For the compound `Cc1c(O)cc(C)c2c1oc(=O)c1c(C)c(O)ccc12`, the IC50 against Estrogen receptor worked out at 0.785 µM; against Estrogen receptor beta [1] it was 0.0067 µM.
Turning to `Cc1cc(O)c(Cl)c2c(=O)oc3c(Cl)c(O)ccc3c12`, the values for the IC50 on Estrogen receptor and on Estrogen receptor beta [1] were 2.52 µM and 0.018 µM, respectively.
The matching figures for `Cc1c(O)ccc2c1oc(=O)c1ccccc12`: > 10 µM and 1.45 µM.
For `COc1ccc2c(c1)c(=O)oc1c(C)c(O)ccc12`, in that order: > 10 µM and 0.308 µM.
For `Cc1cc2c(cc1Br)c(=O)oc1c(C)c(O)ccc12`, in that order: 6.85 µM and 0.215 µM.
Consider `C=Cc1ccc2c(c1)c(=O)oc1c(C)c(O)ccc12`, for which the IC50 against Estrogen receptor was 4.59 µM; on Estrogen receptor beta [1], 0.31 µM.
For `Cc1c(O)ccc2c1oc(=O)c1c(C)c(N)ccc12`, in that order: 14.3 µM and 0.279 µM.
The matching figures for `COc1c(C)c(Br)c2c(=O)oc3c(C)c(O)ccc3c2c1C`: 0.225 µM and 0.00115 µM.
`Cc1c(O)c(Cl)c(C)c2c1c(=O)oc1c(Cl)c(O)ccc12`: the values for the half-inhibitory concentration (IC50) against Estrogen receptor and against Estrogen receptor beta [1] were 0.597 µM and 0.022 µM, respectively.
Regarding `CCC1Oc2c(ccc(O)c2C)-c2ccc(O)c(C)c21` (stereo not drawn), the IC50 was found to be 0.101 µM at Estrogen receptor and 0.0032 µM at Estrogen receptor beta [1].
On to `CCc1cc(OC)cc2c(=O)oc3c(C)c(O)ccc3c12`, for which the figures for the IC50 on Estrogen receptor and against Estrogen receptor beta [1] were 9.83 µM and 0.069 µM, respectively.
In the case of `Cc1c(O)ccc2c1oc(=O)c1c(C)cccc12`, the IC50 was > 10 µM against Estrogen receptor and 0.093 µM at Estrogen receptor beta [1].
For `CCc1c(O)ccc2c1c(=O)oc1c(C)c(O)ccc12`, in that order: 0.484 µM and 0.014 µM.
`Cc1c(O)ccc2c1oc(=O)c1c(Br)cc(Br)cc12`: the IC50 on Estrogen receptor turned out to be 0.597 µM; on Estrogen receptor beta [1], 0.024 µM.
As for `C=Cc1cc(C)cc2c(=O)oc3c(C)c(O)ccc3c12`, the IC50 turned out to be 10 µM on Estrogen receptor, 0.01 µM at Estrogen receptor beta [1] and 1.28 µM at Estrogen receptor beta [2]. Besides, the EC50 (commonly the midpoint of the concentration-response curve) at Estrogen receptor beta [3] is > 1 µM.
In the case of `Cc1c(O)ccc2c1oc(=O)c1cccc(C)c12`, the results for the IC50 at Estrogen receptor and against Estrogen receptor beta [1] were > 10 µM and 0.326 µM, respectively.
Turning to `CCC1Oc2c(ccc(O)c2C)-c2c(C)cc(O)c(C)c21` (stereo not drawn), the results for the IC50 at Estrogen receptor and against Estrogen receptor beta [1] were 0.129 µM and 0.0023 µM, respectively.
`Cc1c(O)ccc2c1oc(=O)c1c(C)c(O)cc(C)c12`: the IC50 amounted to 0.716 µM against Estrogen receptor and 0.0057 µM against Estrogen receptor beta [1].
For `Cc1c(O)ccc2c1c(=O)oc1cc(O)ccc12`, in that order: 1.17 µM and 0.049 µM.
The matching figures for `Cc1c(O)ccc2c1oc(=O)c1cc(O)ccc12`: 0.654 µM and 0.046 µM.
`C=Cc1cc(O)cc2c1-c1ccc(O)c(C)c1CC2` [EFFUSOL] displayed an IC50 against Estrogen receptor beta [1] of 0.012 µM. That is a double-digit nanomolar value.
As for `Cc1c(O)ccc2c1oc(=O)c1cc(Br)ccc12`, the IC50 is > 10 µM against Estrogen receptor and 0.128 µM at Estrogen receptor beta [1].
The matching figures for `CCc1c(O)ccc2c1oc(=O)c1c(C)c(O)ccc12`: 0.229 µM and 0.0078 µM.
Take `Cc1cc(Br)c2c(c1)c(=O)oc1c(C)c(O)ccc12`: the IC50 on Estrogen receptor worked out at 3.12 µM; on Estrogen receptor beta [1] it was 0.044 µM.
The matching figures for `C=Cc1cccc2c(=O)oc3c(C)c(O)ccc3c12`: > 10 µM and 0.208 µM.
For the compound `COc1cc2c(=O)oc3c(C)c(O)ccc3c2cc1Br`, the results for the IC50 against Estrogen receptor and at Estrogen receptor beta [1] were 10 µM and 0.077 µM, respectively.
Regarding `COc1c(C)cc2c(=O)oc3c(C)c(O)ccc3c2c1C`, the IC50 on Estrogen receptor stood at 4.16 µM; at Estrogen receptor beta [1] it was 0.016 µM.
The matching figures for `Cc1c(O)ccc2c1oc(=O)c1cc(O)cc(C)c12`: 0.583 µM and 0.054 µM.
The matching figures for `CCC1Oc2c(ccc(O)c2C)-c2c(C)cc(O)cc21` (stereo not drawn): 0.435 µM and 0.008 µM.
As to `Cc1c(O)ccc2c1oc(=O)c1c(O)c(O)ccc12`, the values for the IC50 against Estrogen receptor and against Estrogen receptor beta [1] were 1.28 µM and 0.082 µM, respectively.
For the compound `COc1ccc2c(c1C)c(=O)oc1c(C)c(O)ccc12`, the IC50 on Estrogen receptor came to 1 µM; against Estrogen receptor beta [1], 0.117 µM.
For `Cc1cc(O)cc2c1-c1ccc(O)c(C)c1OC2`, in that order: 1.03 µM and 0.074 µM.
The matching figures for `C=CCc1cc(C)cc2c(=O)oc3c(C)c(O)ccc3c12`: 10 µM and 0.035 µM.
For `Cc1c(O)c(Cl)cc2c1c(=O)oc1c(Cl)c(O)ccc12`, in that order: 0.524 µM and 0.019 µM.
As for `CCc1cc(O)cc2c(=O)oc3c(C)c(O)ccc3c12`, the IC50 was found to be 1.78 µM against Estrogen receptor and 0.091 µM against Estrogen receptor beta [1].
Turning to `Cc1cc(O)c(C)c2c1-c1ccc(O)c(C)c1OC2C` (stereo not drawn), the IC50 against Estrogen receptor stood at 0.237 µM; against Estrogen receptor beta [1] it was 0.009 µM.
As for `Cc1cc(C)c2c(c1)c(=O)oc1c(C)c(O)ccc12`, the IC50 at Estrogen receptor worked out at 3.71 µM; against Estrogen receptor beta [1], 0.02 µM.
With `Cc1c(O)ccc2c1c(=O)oc1c(F)c(O)ccc12`, the IC50 against Estrogen receptor amounted to 1.58 µM; on Estrogen receptor beta [1] it was 0.054 µM.
For `O=c1oc2c(Cl)c(O)ccc2c2cc(F)c(O)c(Cl)c12`, in that order: 11.6 µM and 0.18 µM.
